Laboratory results reported in US10774064B2 (Cadent Therapeutics, Inc., priority 2016, dated 2020).

Biological target: T1, small-conductance Ca2+-activated K+ channels (SK channels, subtype 2) (Homo sapiens, UniProt Q9H2S1)
T1 construct: expressed in transfected cells; host or cells: HEK293
Test: whole-cell patch-clamp of ionic current through SK2 channels in HEK293 cells (SC100)
Format: cell-based
Settings: whole-cell patch-clamp, HEK293 cells expressing SK2 channels; concentration that increases the basal current by 100%
Summary of the method: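 Whole-cell patch-clamp recording of current in HEK293 cells expressing SK2 channels. SC100 is the compound concentration that increases basal current by 100%.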

Structure (SMILES) | SC100 (μM)
COC(=O)N1CC(Oc2cc(NC3CCCCC3)nc(-c3nc(C)cs3)n2)C1 [NSSy6099] | +++ (+++ means <200 nM)
COCC1CN(c2cc(NC3CCCCC3)nc(-c3nc(C)cs3)n2)CCO1 (centres unmarked) [NSSy6100] | ++ (++ means 200 nM-1000 nM)
COC(=O)N1CC(Oc2cc(N(C)C3CCC(F)(F)CC3)nc(-c3nc(C)cs3)n2)C1 [NSSy6105, methyl 3-((6-((4,4-difluorocyclohexyl) (methyl)amino)-2-(4-methylthiazol-2-yl)pyrimidin-4-yl)oxy) azetidine-1-carboxylate] | + (+ means >1 uM)
Cc1ccn(-c2nc(NC3CCC(F)(F)CC3)cc(N3CCS(=O)(=O)CC3)n2)n1 [NSSy6111] | ++ (++ means 200 nM-1000 nM)
COC[C@H]1CN(c2cc(NC3CCCCC3)nc(-c3nc(C)cs3)n2)CCO1 [NSSy6115] | ++ (++ means 200 nM-1000 nM)
Cc1csc(-c2nc(NC3CCC(F)(F)CC3)cc(N3CC4CC3CO4)n2)n1 (centres unmarked) [NSSy6116] | ++ (++ means 200 nM-1000 nM)
COC[C@@H]1CN(c2cc(NC3CCCCC3)nc(-c3nc(C)cs3)n2)CCO1 [NSSy6124] | ++ (++ means 200 nM-1000 nM)
Cc1nsc(-c2nc(NC3CCC(F)(F)CC3)cc(N3CCS(=O)(=O)CC3)n2)n1 [NSSy6125] | ++ (++ means 200 nM-1000 nM)
COC(=O)N1CC(Oc2cc(N3CC4(CCCCC4)C3)nc(-c3nc(C)cs3)n2)C1 [NSSy6126] | + (+ means >1 uM)
COC(=O)N1CC(Oc2cc(NC3C4CC3C4)nc(-n3ccc(C)n3)n2)C1 (centres unmarked) [NSSy6127] | + (+ means >1 uM)
Cc1csc(-c2nc(NC3CCC(F)(F)CC3)cc(N3CC4CCC(C3)O4)n2)n1 [NSSy6129] | ++ (++ means 200 nM-1000 nM)
Cc1csc(-c2nc(NC3CCCCC3)cc(N3CCS(=O)(=O)CC3)n2)n1 [NSSy6131] | +++ (+++ means <200 nM)
COC(=O)N1CC(Oc2cc(NC3CCC(F)(F)CC3)nc(-c3csc(C)n3)n2)C1 [NSSy6132] | + (+ means >1 uM)
COC(=O)N1CC(Oc2cc(NC3CCCCC3)nc(-c3csc(C)n3)n2)C1 [NSSy6133] | + (+ means >1 uM)
Cc1nc(-c2nc(NC3CCCCC3)cc(N3CCS(=O)(=O)CC3)n2)cs1 [NSSy6134] | + (+ means >1 uM)
Cc1nsc(-c2nc(NC3CCC(F)(F)CC3)cc(N3CC4(COC4)C3)n2)n1 [NSSy6145] | + (+ means >1 uM)
Cc1csc(-c2nc(NC3CCCCC3)cc(N3CCN(C4COC4)CC3)n2)n1 [NSSy6149] | ++ (++ means 200 nM-1000 nM)
FC1(F)CCC(Nc2cc(N3CCOCC3)nc(-c3nccs3)n2)CC1 [NSSy6152] | + (+ means >1 uM)
COC(=O)N1CC(Oc2cc(NC3CCC(F)(F)CC3)nc(-n3ccc(F)n3)n2)C1 [NSSy6162] | ++ (++ means 200 nM-1000 nM)

Structure (SMILES) | SC100 (μM)
Cc1nc(-c2nc(NC3CCC(F)(F)CC3)cc(N3CCS(=O)(=O)CC3)n2)cs1 [NSSy6165] | + (+ means >1 uM)
COC(=O)N1CC(Oc2cc(NC3CCCCC3)nc(-c3nccs3)n2)C1 [NSSy6166, methyl 3-((6-(cyclohexylamino)-2-(thiazol-2-yl)pyrimidin-4-yl)oxy) azetidine-1-carboxylate] | + (+ means >1 uM)
COC(=O)N1CC(Oc2cc(NC3CCC(F)(F)CC3)nc(-c3nccs3)n2)C1 [NSSy6167] | + (+ means >1 uM)
Cc1csc(-c2nc(NC3CCC(F)(F)CC3)cc(N3C[C@@H]4C[C@H]3CO4)n2)n1 [NSSy6171] | ++ (++ means 200 nM-1000 nM)
Cc1nsc(-c2nc(NC3CCC(F)(F)CC3)cc(N3CCN4C(=O)OCC4C3)n2)n1 (centres unmarked) [NSSy6178] | ++ (++ means 200 nM-1000 nM)
Cc1nsc(-c2nc(NC3CCC(F)(F)CC3)cc(N3CCN(C4COC4)CC3)n2)n1 [NSSy6201] | + (+ means >1 uM)
Cc1nsc(-c2nc(NC3CCCCC3)cc(N3CCS(=O)(=O)CC3)n2)n1 [NSSy6202, 4-(6-(cyclohexylamino)-2-(3-methyl-1,2,4-thiadiazol-5-yl)pyrimidin-4-yl)thiomorpholine 1,1-dioxide] | ++ (++ means 200 nM-1000 nM)
Cc1nsc(-c2nc(NC3CCC(F)(F)CC3)cc(N3CCN4C(=O)OC[C@@H]4C3)n2)n1 [NSSy6251] | ++ (++ means 200 nM-1000 nM)
Cc1nsc(-c2nc(NC3CCC(F)(F)CC3)cc(N3CCN4C(=O)OC[C@H]4C3)n2)n1 [NSSy6252] | ++ (++ means 200 nM-1000 nM)
Cc1csc(-c2nc(NC3CCC(F)(F)CC3)cc(OC3CCS(=O)(=O)CC3)n2)n1 [NSSy6253] | ++ (++ means 200 nM-1000 nM)
CC(=O)N1CCC(Oc2cc(NC3CCC(F)(F)CC3)nc(-c3nc(C)cs3)n2)CC1 [NSSy6258] | ++ (++ means 200 nM-1000 nM)
Cc1csc(-c2nc(CC3CCC(F)(F)CC3)cc(N3CCOCC3)n2)n1 [NSSy6263, 4-(6-((4,4-difluorocyclohexyl)methyl)-2-(4-methylthiazol-2-yl)pyrimidin-4-yl)morpholine] | + (+ means >1 uM)
Cc1cc(C)n(-c2nc(NC3CCCC(F)(F)C3)cc(N3CCOCC3)n2)n1 (centres unmarked) [NSSy6265] | + (+ means >1 uM)
Cc1ccn(-c2nc(NC3CCC(F)(F)CC3)cc(N(C)C3CC3)n2)n1 [NSSy6272] | ++ (++ means 200 nM-1000 nM)
Cc1csc(-c2cc(N3CCOCC3)cc(OC3CCC(F)(F)CC3)n2)n1 [NSSy6285] | + (+ means >1 uM)
Cc1csc(-c2cc(N(C)C3COC3)cc(NC3CCC(F)(F)CC3)n2)n1 [NSSy6288] | ++ (++ means 200 nM-1000 nM)
Cc1csc(N2C[C@@H](Nc3ccc([N+](=O)[O-])cc3)C[C@H](N3CCOCC3)C2)n1 [NSSy6342, (3S,5S)-1-(4-methylthiazol-2-yl)-5-morpholino-N-(4-nitrophenyl)piperidin-3-amine] | + (+ means >1 uM)
Fc1ccn(-c2nc(NC3CCC(F)(F)CC3)cc(N3CCOCC3)n2)n1 [NSSy6343] | + (+ means >1 uM)
Cc1csc(-c2nc(N3CCOCC3)cc(N3CC4CCCCC43)n2)n1 (centres unmarked) [NSSy6348, 4-(6-(7-azabicyclo[4.2.0]octan-7-yl)-2-(4-methylthiazol-2-yl)pyrimidin-4-yl)morpholine] | + (+ means >1 uM)

Structure (SMILES) | SC100 (μM)
Cc1cc(C)n(-c2cc(CO)cc(NC3CCC(F)(F)CC3)n2)n1 [NSSy6355, (2-((4,4-difluorocyclohexyl)amino)-6-(3,5-dimethyl-1H-pyrazol-1-yl)pyridin-4-yl) methanol] | ++ (++ means 200 nM-1000 nM)
CC(=O)N1CCC(c2cc(NC3CCC(F)(F)CC3)nc(-n3ccc(C)n3)n2)CC1 [NSSy6369] | ++ (++ means 200 nM-1000 nM)
Cc1ccn(-c2cc(COc3ccc(C#N)cn3)cc(NC3CCC(F)(F)CC3)n2)n1 [NSSy6371] | +++ (+++ means <200 nM)
Cc1csc(-c2cc(OC3CCC(F)(F)CC3)nc(N3CCOCC3)c2)n1 [NSSy6374, 4-(6-((4,4-difluorocyclohexyl)oxy)-4-(4-methylthiazol-2-yl)pyridin-2-yl) morpholine] | + (+ means >1 uM)
Cc1cc(C)n(-c2nc(N3CCOCC3)cc(N(O)C3CCC(F)(F)CC3)n2)n1 [NSSy6386] | + (+ means >1 uM)
Cc1cc(C)n(-c2cc(N3CCOCC3)nc(NC3CCC(F)(F)CC3)n2)n1 [NSSy6389] | + (+ means >1 uM)
Cc1csc(-c2cc(N3CCOCC3)nc(NC3CCC(F)(F)CC3)n2)n1 [NSSy6391, N-(4,4-difluorocyclohexyl)-4-(4-methylthiazol-2-yl)-6-morpholinopyrimidin-2-amine] | + (+ means >1 uM)
Cc1ccn(-c2nc(NC3CCC(F)(F)CC3)cc(N3C[C@@H]4C[C@H]3CO4)n2)n1 [NSSy6394] | + (+ means >1 uM)
Cc1ccn(-c2cc(C(O)c3ncco3)cc(NC3CCC(F)(F)CC3)n2)n1 (centres unmarked) [NSSy6395] | ++ (++ means 200 nM-1000 nM)
Cc1ccn(-c2cc([C@@H](O)c3ncco3)cc(NC3CCC(F)(F)CC3)n2)n1 [NSSy6415] | ++ (++ means 200 nM-1000 nM)
Cc1ccn(-c2cc([C@H](O)c3ncco3)cc(NC3CCC(F)(F)CC3)n2)n1 [NSSy6416] | ++ (++ means 200 nM-1000 nM)
Cc1ccn(-c2cc(COc3ccc(C#N)nn3)cc(NC3CCC(F)(F)CC3)n2)n1 [NSSy6417] | +++ (+++ means <200 nM)
Cc1ccn(-c2nc(NC3CC4CCC3O4)cc(N3CCOCC3)n2)n1 (centres unmarked) [NSSy6420] | + (+ means >1 uM)
OC(c1cc(NC2CCC(F)(F)CC2)nc(-n2cc(F)cn2)c1)c1ncco1 (centres unmarked) [NSSy6435] | + (+ means >1 uM)
CC(=O)N1CCC(O)(c2cc(NC3CCC(F)(F)CC3)nc(-c3nc(C)cs3)c2)CC1 [NSSy6436, 1-(4-(2-((4,4-difluorocyclohexyl)amino)-6-(4-methylthiazol-2-yl)pyridin-4-yl)-4-hydroxypiperidin-1-yl)ethan-1-one] | +++ (+++ means <200 nM)
Cc1ccn(-c2nc(N[C@@H]3C[C@H]4CC[C@@H]3O4)cc(N3CCOCC3)n2)n1 [NSSy6445] | + (+ means >1 uM)
Cc1ccn(-c2nc(N[C@H]3C[C@@H]4CC[C@H]3O4)cc(N3CCOCC3)n2)n1 [NSSy6446] | + (+ means >1 uM)
Cc1ccn(-c2cc(COc3ccc(C(N)=O)nn3)cc(NC3CCC(F)(F)CC3)n2)n1 [NSSy6451] | +++ (+++ means <200 nM)
